The values that follow come from PubChem BioAssay (NCI).

Test systems include T-47D breast; SK-MEL-28 melanoma; RPMI-8226 leukemia; KM12 colon; MCF7 breast; SF-268 CNS; NCI-H226 lung; HT29 colon; MALME-3M melanoma; COLO 205 colon.
Holding throughout (experiment): growth of human tumour cells (NCI), 48 h

The structures appear in SMILES notation.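 Dose response: 5 concentrations. Exposure: 48 h. Format: 96-well plates. Endpoint: linear interpolation; highest concentration if not reached. Here, GI50 denotes the concentration required for 50% inhibition of growth. TGI denotes the concentration required for complete inhibition of growth.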

Take `O=C(NCCOCCOCCOCCNC(=O)c1cc2c(o1)C(=O)c1ccccc1C2=O)NC12CC3CC(CC(C3)C1)C2`: the GI50 is 1.59 µM with T-47D breast; 1.94 µM in the assay on SK-MEL-28 melanoma; 1.87 µM with RPMI-8226 leukemia; 3.34 µM with KM12 colon; 1.16 µM in the assay on MCF7 breast; 2.29 µM in the assay with SF-268 CNS. Also, the GI50 in the assay on NCI-H226 lung was 1.56 µM; with HT29 colon it was 2.6 µM; with MALME-3M melanoma it was 0.191 µM; in the assay with COLO 205 colon it was 1.96 µM. Besides, the TGI was determined as 6.02 µM with T-47D breast; 3.75 µM in the assay on SK-MEL-28 melanoma; 5.63 µM in the assay on RPMI-8226 leukemia; 13 µM in the assay on KM12 colon; 3.22 µM in the assay with MCF7 breast; 6.22 µM in the assay with SF-268 CNS. Besides, the TGI in the assay with NCI-H226 lung was 3.66 µM; in the assay with HT29 colon it was 6.79 µM; in the assay on MALME-3M melanoma it was 0.489 µM; in the assay on COLO 205 colon, 3.97 µM.

For the molecule `Cc1nc2sc3c(N)ncnc3c2c(C)c1C`, the GI50 in the assay on T-47D breast, with SK-MEL-28 melanoma, with RPMI-8226 leukemia, in the assay with KM12 colon, in the assay with MCF7 breast and in the assay with SF-268 CNS was > 25 µM throughout. Moreover, the GI50 with NCI-H226 lung, with HT29 colon, in the assay on MALME-3M melanoma and with COLO 205 colon was > 25 µM each time. For the same molecule, the TGI in the assay on T-47D breast, with SK-MEL-28 melanoma, in the assay on RPMI-8226 leukemia, with KM12 colon, in the assay on MCF7 breast and in the assay with SF-268 CNS was > 25 µM throughout. For the same molecule, the TGI in the assay with NCI-H226 lung, with HT29 colon, in the assay on MALME-3M melanoma and in the assay with COLO 205 colon was > 25 µM in each case.

In the case of `CC(=O)/C(Br)=C/c1ccc(Br)o1`, the GI50 in the assay on T-47D breast is 8.89 µM; in the assay on SK-MEL-28 melanoma it was 2.87 µM; in the assay on RPMI-8226 leukemia, 4.73 µM; in the assay on KM12 colon, 12 µM; with MCF7 breast, 3.67 µM; with SF-268 CNS, 7.58 µM. Further, the GI50 in the assay on NCI-H226 lung is 12.7 µM; in the assay on HT29 colon, 4.21 µM; in the assay with MALME-3M melanoma, 6.15 µM; with COLO 205 colon, 7.55 µM. Further, the TGI in the assay on T-47D breast came out at 24.2 µM; with SK-MEL-28 melanoma it was 9.18 µM; with RPMI-8226 leukemia, 13.1 µM; in the assay with KM12 colon, 25.9 µM; in the assay with MCF7 breast it was 14.4 µM; in the assay with SF-268 CNS, 23.6 µM. Further, the TGI with NCI-H226 lung was determined as 26.2 µM; in the assay with HT29 colon, 14.6 µM; with MALME-3M melanoma, 14.3 µM; with COLO 205 colon, 20.9 µM.

`COc1ccccc1[As]=[As]c1ccccc1OC` (centres undefined): the GI50 was 0.0366 µM in the assay with T-47D breast; 0.0437 µM in the assay on SK-MEL-28 melanoma; 0.0278 µM with RPMI-8226 leukemia; 0.11 µM in the assay on KM12 colon; 0.021 µM with MCF7 breast; 0.036 µM in the assay with SF-268 CNS. For the same molecule, the GI50 in the assay on NCI-H226 lung is 0.0723 µM; in the assay with HT29 colon it was 0.0405 µM; in the assay on MALME-3M melanoma, 0.0443 µM; in the assay with COLO 205 colon, 0.0209 µM. Besides, the TGI turned out to be 0.199 µM in the assay with T-47D breast; 0.153 µM with SK-MEL-28 melanoma; 0.0832 µM in the assay on RPMI-8226 leukemia; 0.24 µM in the assay on KM12 colon; 0.0604 µM in the assay on MCF7 breast; 0.14 µM in the assay with SF-268 CNS. Also, the TGI in the assay on NCI-H226 lung was 0.21 µM; with HT29 colon, 0.174 µM; with MALME-3M melanoma it was 0.145 µM; in the assay with COLO 205 colon it was 0.0475 µM.

With `CCC(=O)N1C/C(=C/c2ccc(Br)cc2)C(=O)/C(=C/c2ccc(Br)cc2)C1`, the GI50 is 0.673 µM with T-47D breast; 1.53 µM with SK-MEL-28 melanoma; < 0.0497 µM in the assay on RPMI-8226 leukemia; 0.186 µM with KM12 colon; 0.271 µM in the assay with MCF7 breast; 0.902 µM with SF-268 CNS. Moreover, the GI50 in the assay on NCI-H226 lung is 1.13 µM; in the assay on HT29 colon it was 0.102 µM; with MALME-3M melanoma it was 1.69 µM; in the assay on COLO 205 colon it was 0.611 µM. In addition, the TGI in the assay on T-47D breast worked out at 2.54 µM; with SK-MEL-28 melanoma, 3.13 µM; with KM12 colon, 0.553 µM; in the assay on MCF7 breast, 1.56 µM; with SF-268 CNS it was 3.06 µM; in the assay on NCI-H226 lung, 4.38 µM. Moreover, the TGI in the assay with HT29 colon was determined as 0.433 µM; with MALME-3M melanoma it was 3.63 µM; in the assay with COLO 205 colon, 1.74 µM.

In the case of `CCN(CC)CCN1c2nc3ccccc3cc2Sc2cc3ccccc3nc21`, the GI50 was 3.09 µM in the assay on T-47D breast; 1.8 µM with SK-MEL-28 melanoma; 1 µM in the assay on RPMI-8226 leukemia; 2.01 µM in the assay with KM12 colon; 0.75 µM with MCF7 breast; 3.34 µM in the assay on SF-268 CNS. Further, the GI50 with NCI-H226 lung was 3.31 µM; with HT29 colon, 1.21 µM; in the assay on MALME-3M melanoma, 1.57 µM; in the assay with COLO 205 colon, 1.35 µM. The TGI is 12.5 µM with T-47D breast; 3.49 µM in the assay with SK-MEL-28 melanoma; 2.97 µM in the assay on RPMI-8226 leukemia; 5 µM in the assay with KM12 colon; 2.1 µM with MCF7 breast; 13 µM in the assay on SF-268 CNS. The TGI with NCI-H226 lung is 14.2 µM; in the assay with HT29 colon, 3.06 µM; in the assay on MALME-3M melanoma it was 3.12 µM; in the assay on COLO 205 colon it was 2.85 µM.

Take `O=C1Nc2ccccc2/C1=C\c1nc(-c2ccccc2F)n2ccccc12`: the GI50 with T-47D breast was 2.36 µM; in the assay with SK-MEL-28 melanoma, 3.71 µM; with RPMI-8226 leukemia it was 51.4 µM; with KM12 colon, 3.49 µM; in the assay with MCF7 breast it was 2.1 µM; in the assay with SF-268 CNS it was 4.65 µM. Also, the GI50 was 4.78 µM in the assay on NCI-H226 lung, 3.5 µM with HT29 colon, 3.07 µM in the assay with MALME-3M melanoma and 4.08 µM with COLO 205 colon. Further, the TGI in the assay on T-47D breast was 8.11 µM; in the assay on SK-MEL-28 melanoma, 14.6 µM; in the assay with RPMI-8226 leukemia it was > 100 µM; with KM12 colon, 14.4 µM; in the assay with MCF7 breast it was 12.2 µM; with SF-268 CNS, 18.7 µM. Moreover, the TGI with NCI-H226 lung was 21.3 µM; in the assay with HT29 colon, 12.1 µM; with MALME-3M melanoma, 7.22 µM; in the assay on COLO 205 colon, 14.9 µM.
